Where two headings read alike, the source gives them in different places.
Assays:
Format in all cases: cell-based
[1] = target: T1, MATE2-K (Homo sapiens, UniProt Q86VL8); assay: MATE2-K activity: TEA accumulation in HEK-MATE2-K cells
T1 construct: expressed in transfected cells; host or cells: HEK293
Experimental: (§1) The effects of pyrethroids on activity of ABC and SLC transporters were determined through measuring cellular accumulation or retention of fluorescent or radiolabeled reference substrates for transporters, in the presence or absence of reference inhibitors, as previously described [41].
For accumulation assays (performed for all transporters, excepted BCRP), transporter-expressing cells usually cultured in 48-well plates were first incubated at 37°C with reference substrates in the absence (control) or presence of pyrethroids or reference inhibitors, in a well-defined transport assay medium [42], consisting of 136 mM NaCl, 5.3 mM KCl, 1.1mM KH2PO4, 0.8 mM MgSO4, 1.8 mM CaCl2, 10 mM HEPES, 11 mM D-glucose and adjusted to pH = 7.4 (excepted for MATE transporter assays, for which pH was set to 8.4). The nature of substrates and reference inhibitors and the incubation times with substrates, that varied according to the transporter, were selected in agreement with previous studies [41, 43] and are indicated in S3 Table. The total incubation volume with substrates was 200 μL/well. After washing twice in phosphate-buffered saline (PBS) (200 μL/well/washing), cells were lysed in distilled water (155 μL/well). An aliquot of cell lysate (5 μL) was then taken for determining cellular protein content by the Bradford method [44]. The rest of lysate (150 μL/well) was used for measuring intracellular accumulation of reference substrates by scintillation counting or spectrofluorimetry using a SpectraMax Gemini SX spectrofluorometer (Molecular Devices, Sunnyvale, CA, USA) (excitation and emission wavelengths were 485 and 535 nm, respectively, for rhodamine 123 and fluorescein, and 355 and 460 nm, respectively, for DAPI).
(§2) Intracellular concentrations of reference substrates were initially expressed as fluorescence arbitrary units (for fluorescent dye substrates) or as moles (for radiolabeled substrates) and normalized to cellular protein content, determined by the Bradford method [44]. […]

[2] = target: T2, OCT1 (Homo sapiens, UniProt O15245); assay: Cis-inhibition of OCT1-mediated TEA accumulation in HEK-OCT1 cells; details: pyrethroid 100 μM; 29 μM [14C]-TEA, 5 min
T2 sequence (O15245 1-554): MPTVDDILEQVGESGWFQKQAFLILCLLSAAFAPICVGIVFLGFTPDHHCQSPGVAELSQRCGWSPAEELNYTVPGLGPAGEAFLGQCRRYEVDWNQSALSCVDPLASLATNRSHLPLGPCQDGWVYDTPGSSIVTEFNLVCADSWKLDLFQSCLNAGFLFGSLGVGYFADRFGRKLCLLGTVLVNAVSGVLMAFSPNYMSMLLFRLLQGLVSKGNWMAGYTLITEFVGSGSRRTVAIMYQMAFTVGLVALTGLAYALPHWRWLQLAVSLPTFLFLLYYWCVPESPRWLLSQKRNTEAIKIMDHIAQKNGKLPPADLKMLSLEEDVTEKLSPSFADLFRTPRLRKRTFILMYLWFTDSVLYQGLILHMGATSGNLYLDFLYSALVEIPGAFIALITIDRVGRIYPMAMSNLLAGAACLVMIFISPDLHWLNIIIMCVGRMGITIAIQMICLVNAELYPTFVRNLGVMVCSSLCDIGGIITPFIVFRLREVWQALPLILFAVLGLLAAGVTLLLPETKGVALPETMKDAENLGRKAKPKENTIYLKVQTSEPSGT
Experimental: Intracellular accumulation of TEA was then determined by scintillation counting. […] After washing, cells were next re-incubated with 29 μM [1-^14C]-TEA for 5 min at 37°C. Intracellular accumulation of [1-^14C]-TEA was then determined by scintillation counting.

[3] = target: T3, OATP1B3 (Homo sapiens, UniProt Q9NPD5); assay: OATP1B3 activity: fluorescein accumulation in CHO-OATP1B3 cells; details: pyrethroid up to 100 μM
T3 construct: expressed in transfected cells; host or cells: CHO
T3 sequence (Q9NPD5 1-702): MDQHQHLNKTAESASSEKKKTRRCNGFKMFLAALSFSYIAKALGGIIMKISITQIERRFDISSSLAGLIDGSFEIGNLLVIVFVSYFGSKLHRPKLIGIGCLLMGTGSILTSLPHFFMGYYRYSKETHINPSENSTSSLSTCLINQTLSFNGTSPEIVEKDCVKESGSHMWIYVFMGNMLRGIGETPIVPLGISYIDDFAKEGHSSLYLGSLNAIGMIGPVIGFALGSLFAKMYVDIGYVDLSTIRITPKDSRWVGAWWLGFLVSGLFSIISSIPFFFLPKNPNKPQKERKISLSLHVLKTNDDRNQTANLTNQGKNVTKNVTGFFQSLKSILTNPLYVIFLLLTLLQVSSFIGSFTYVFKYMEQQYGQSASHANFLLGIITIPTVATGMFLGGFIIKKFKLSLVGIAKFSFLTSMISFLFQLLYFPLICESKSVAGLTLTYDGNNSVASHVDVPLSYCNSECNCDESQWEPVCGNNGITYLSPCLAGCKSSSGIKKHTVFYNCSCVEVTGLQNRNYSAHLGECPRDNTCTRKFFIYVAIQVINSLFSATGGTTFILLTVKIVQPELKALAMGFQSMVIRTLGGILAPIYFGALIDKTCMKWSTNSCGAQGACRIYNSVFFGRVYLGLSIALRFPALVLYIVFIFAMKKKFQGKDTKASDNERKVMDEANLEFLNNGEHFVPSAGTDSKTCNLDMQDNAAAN
Experimental: as §1
For accumulation assays (performed for all transporters, excepted BCRP), transporter-expressing cells usually cultured in 48-well plates were first incubated at 37°C with reference substrates in the absence (control) or presence of pyrethroids or reference inhibitors, in a well-defined transport assay medium [42], consisting of 136 mM NaCl, 5.3 mM KCl, 1.1mM KH2PO4, 0.8 mM MgSO4, 1.8 mM CaCl2, 10 mM HEPES, 11 mM D-glucose and adjusted to pH = 7.4 (excepted for MATE transporter assays, for which pH was set to 8.4). The nature of substrates and reference inhibitors and the incubation times with substrates, that varied according to the transporter, were selected in agreement with previous studies [41, 43] and are indicated in S3 Table. The total incubation volume with substrates was 200 μL/well. […]
as §2

T1 sequence (Q86VL8 1-566 isoform Q86VL8-3): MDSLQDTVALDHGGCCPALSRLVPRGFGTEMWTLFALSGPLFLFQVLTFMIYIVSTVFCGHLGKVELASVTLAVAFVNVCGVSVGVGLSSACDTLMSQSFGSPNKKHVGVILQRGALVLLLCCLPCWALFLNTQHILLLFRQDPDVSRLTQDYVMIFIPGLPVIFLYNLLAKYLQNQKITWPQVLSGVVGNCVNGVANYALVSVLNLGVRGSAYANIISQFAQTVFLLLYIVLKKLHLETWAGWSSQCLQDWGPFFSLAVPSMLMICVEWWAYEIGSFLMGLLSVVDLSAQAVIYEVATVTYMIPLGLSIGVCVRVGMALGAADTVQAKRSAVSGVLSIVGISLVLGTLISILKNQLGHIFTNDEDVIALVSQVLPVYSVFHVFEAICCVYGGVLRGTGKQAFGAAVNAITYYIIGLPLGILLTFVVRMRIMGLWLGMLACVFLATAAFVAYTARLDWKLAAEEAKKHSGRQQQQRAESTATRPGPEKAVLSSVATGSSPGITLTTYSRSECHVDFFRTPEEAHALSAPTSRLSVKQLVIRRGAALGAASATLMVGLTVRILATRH

SMILES | effect on MATE2-K activity ([1]; pyrethroid up to 100 μM, HEK-MATE2-K cells, TEA) | effect on MATE2-K activity ([1]; pyrethroid up to 100 μM, HEK-MATE2-K cells, TEA, listed as Allethrin) | cis-effect on TEA accumulation in HEK-OCT1 cells [2] | effect on OATP1B3 activity [3] | effect on OATP1B3 activity ([3]; listed as Tetramethrin) | effect on MATE2-K activity [1]
C=CCC1=C(C)C(OC(=O)C2C(C=C(C)C)C2(C)C)CC1=O (stereo not drawn) [allethrin] | failed to alter | No effect (up to 100 μM) | markedly cis-inhibit | – | – | –
CC(C)=CC1C(C(=O)OCN2C(=O)C3=C(CCCC3)C2=O)C1(C)C (stereo not drawn) [tetramethrin] | – | – | – | failed to alter | No effect (up to 100 μM) | No effect (up to 100 μM)
